# According to patent US9133224B2, “Macrocyclic kinase inhibitors” (OSI Pharmaceuticals, LLC, priority 2010, dated 2015):
# Biological target: T1, GST-tagged full-length FAK enzyme (PTK2) (Homo sapiens, UniProt Q05397)
# T1 construct: GST-tagged full-length FAK enzyme (PTK2, Invitrogen PV4085); GST; purchased Invitrogen PV4085
# Experiment: Biochemical Omnia Assay (FAK)
# Conditions: not given
# Procedure: Biochemical Omnia Assay Protocol
# The Omnia Assay (Invitrogen) has been optimized for GST-tagged full-length FAK enzyme (PTK2, Invitrogen PV4085).
# All compound concentrations were assayed in duplicate. Initial compound dilutions were prepared at 100× concentration in 100% DMSO from a 10 mM stock solution. Compounds were further diluted 1:25 in assay buffer resulting in a 4× concentrated solution.
# In running the assay, 5 μL of the above 4× concentrated compound solution (or 4% DMSO for positive controls) was added to the assay plate followed by 5 μL of a solution containing peptide (40 μM) and ATP (200 μM) in assay buffer. The reaction was initiated by the addition of 10 μL of FAK (50 nM) in assay buffer, or assay buffer alone for negative controls. The increase in fluorescence due to peptide phosphorylation was monitored continuously as a function of time using a Spectramax M5 plate reader (Molecular Devices) equipped with SoftMax Pro 5.2 software.
# IC50 values were determined from the slopes of the linear progress curves by non-linear curve-fitting using GraphPad Prism 5 (GraphPad Software, Inc.).
# T1 sequence (Q05397 whole entry): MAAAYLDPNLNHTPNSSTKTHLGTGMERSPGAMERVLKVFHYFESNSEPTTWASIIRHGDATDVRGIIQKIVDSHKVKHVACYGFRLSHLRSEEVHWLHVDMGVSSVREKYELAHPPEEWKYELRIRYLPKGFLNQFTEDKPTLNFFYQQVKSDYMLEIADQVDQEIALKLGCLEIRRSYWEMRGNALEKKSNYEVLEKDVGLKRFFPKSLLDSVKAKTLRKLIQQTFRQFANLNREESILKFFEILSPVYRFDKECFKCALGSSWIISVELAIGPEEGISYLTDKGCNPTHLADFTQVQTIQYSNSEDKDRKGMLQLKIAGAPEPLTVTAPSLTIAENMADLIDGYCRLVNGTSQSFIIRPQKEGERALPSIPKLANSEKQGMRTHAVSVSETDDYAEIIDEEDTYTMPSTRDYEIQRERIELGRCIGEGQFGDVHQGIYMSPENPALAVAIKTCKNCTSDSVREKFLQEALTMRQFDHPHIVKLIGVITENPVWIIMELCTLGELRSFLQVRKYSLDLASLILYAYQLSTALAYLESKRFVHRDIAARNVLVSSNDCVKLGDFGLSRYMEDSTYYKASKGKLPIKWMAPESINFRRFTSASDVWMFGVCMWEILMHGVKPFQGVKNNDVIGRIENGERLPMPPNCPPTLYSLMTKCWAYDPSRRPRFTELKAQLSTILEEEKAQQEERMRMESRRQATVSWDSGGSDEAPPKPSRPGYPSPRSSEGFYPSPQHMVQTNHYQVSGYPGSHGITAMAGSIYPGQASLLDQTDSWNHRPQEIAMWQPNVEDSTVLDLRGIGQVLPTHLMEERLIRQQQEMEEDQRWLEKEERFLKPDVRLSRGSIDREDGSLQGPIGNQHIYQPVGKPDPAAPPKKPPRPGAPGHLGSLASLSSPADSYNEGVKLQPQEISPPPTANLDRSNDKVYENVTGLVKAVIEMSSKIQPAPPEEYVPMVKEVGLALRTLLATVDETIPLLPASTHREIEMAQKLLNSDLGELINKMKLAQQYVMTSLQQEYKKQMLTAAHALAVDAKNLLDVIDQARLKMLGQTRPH
row,Structure (SMILES),IC50
1,CCOP1(=O)Cc2cc(OC)c(cc2Cl)Nc2ncc(C(F)(F)F)c(n2)Nc2ccc(nc2C(=O)NC)-c2cnn(c2)CC2(COC2)CO1 (racemic) [Example 57],< 400 nM
2,CCOP1(=O)Cc2ccc(c(Cl)c2)Nc2ncc(C(F)(F)F)c(n2)Nc2ccc(nc2C(=O)NC)-c2cnn(c2)CC2(COC2)CO1 (racemic) [Example 58],< 400 nM
3,"CCOP1(=O)Cc2ccc(c(OC)c2)Nc2ncc(C(F)(F)F)c(n2)Nc2ccc(nc2C(=O)NC)-c2cnn(c2)CCCO1 (single isomer, unassigned) [Example 6B]",< 400 nM
4,"CCOP1(=O)Cc2ccc(c(OC)c2)Nc2ncc(C(F)(F)F)c(n2)Nc2ccc(nc2C(=O)NC)-c2cnn(c2)CC2(COC2)CO1 (single isomer, unassigned) [Example 44A]",< 400 nM
5,"CCNC(=O)c1nc2ccc1Nc1nc(ncc1C(F)(F)F)Nc1ccc(cc1OC)CP(=O)(OCC)OCC1(COC1)Cn1cc-2cn1 (single isomer, unassigned) [Example 45A]",< 400 nM
6,"CCOP1(=O)Cc2ccc(c(OC)c2)Nc2ncc(C(F)(F)F)c(n2)Nc2ccc(nc2C(=O)NC)-c2cn(nc2OC)CCCO1 (single isomer, unassigned) [Example 48A]",< 400 nM
7,"CCOP1(=O)Cc2ccc(c(OC)c2Cl)Nc2ncc(C(F)(F)F)c(n2)Nc2ccc(nc2C(=O)NC)-c2cnn(c2)CCCO1 (single isomer, unassigned) [Example 54A]",< 400 nM
8,"CCOP1(=O)Cc2cc(OC)c(cc2Cl)Nc2ncc(C(F)(F)F)c(n2)Nc2ccc(nc2C(=O)NC)-c2cnn(c2)CCCO1 (single isomer, unassigned) [Example 56A]",< 400 nM
9,"CCOP1(=O)Cc2cc(OC)c(cc2Cl)Nc2ncc(C(F)(F)F)c(n2)Nc2ccc(nc2C(=O)NC)-c2cnn(c2)CC2(COC2)CO1 (single isomer, unassigned) [Example 57A]",< 400 nM
10,"CCOP1(=O)Cc2ccc(c(Cl)c2)Nc2ncc(C(F)(F)F)c(n2)Nc2ccc(nc2C(=O)NC)-c2cnn(c2)CC2(COC2)CO1 (single isomer, unassigned) [Example 58A]",< 400 nM
11,"CCOP1(=O)Cc2ccc(c(OC)c2)Nc2ncc(C(F)(F)F)c(n2)Nc2ccc(nc2C(=O)NC)-c2cnn(c2)CC(F)(F)CO1 (single isomer, unassigned) [Example 59B]",< 400 nM
12,"CCOP1(=O)Cc2ccc(c(OC)c2)Nc2ncc(C(F)(F)F)c(n2)Nc2ccc(nc2C(=O)NC)-c2cn(nc2C)CC2(COC2)CO1 (single isomer, unassigned) [Example 60A]",< 400 nM

# Same assay, conditions: mean IC50; [ATP] = 50uM; read-out: FAK Activity Biochemical OMNIA; [ATP] = 50uM
row,Structure (SMILES),IC50
1,CCCP1(=O)Cc2ccc(c(OC)c2)Nc2ncc(C(F)(F)F)c(n2)Nc2ccc(cc2C(=O)NC)-c2cnn(c2)CCCO1 (racemic) [Example 66],< 400 nM

# Biological target: T2, FAK (Homo sapiens, UniProt Q05397)
# T2 construct: endogenous in cells; host or cells: U87MG glioblastoma cells (ATCC HTB-14)
# T2 sequence (Q05397 whole entry): as above
# Experiment: Cell-based capture ELISA for inhibition of FAK autophosphorylation [pY397] in U87MG cells
# Conditions: 50% (v/v) human plasma, mean IC50, read-out: FAK Activity Mechanistic (U87MG) HP
# Procedure: Cell-Based Assays for Inhibition of FAK Autophosphorylation: MiaPaCa2 and U87MG
# The ability of compounds to inhibit FAK autophosphorylation was determined in a cell-based capture ELISA assay using U87MG glioblastoma cells (ATCC, Cat # HTB-14) and the FAK [pY397]ELISA kit from Invitrogen (KHO0441). The assay determines the ability of compounds to block endogenous autophosphorylation of FAK stimulated by fibronectin. Cells plated on fibronectin coated 96-well plate were incubated with compounds at various concentrations in the complete growth medium for 2 h. Cell lysates were then prepared and FAK protein was captured onto a FAK antibody-coated 96-well ELISA plate. The phosphotyrosine content of FAK protein was then monitored by quantitation of degree of binding of an antibody that recognizes only the phosphorylated FAK at Y397 within the captured protein.
# Reagents Provided in Biosource FAK [pY397]
# Cultures of U87MG cells growing in MEM (Earles) containing non-essential amino acids, sodium pyruvate (1 mM), […] (1%) and 10% fetal bovine serum were detached by trypsin-EDTA and suspended in cell growth medium. Cells were then plated onto fibronectin (600 ng/well)-coated 96-well flat bottom plates at 1.7×10^4 cells per well in 60 uL cell growth medium and incubated overnight at 37° C. in a CO2 incubator.
# Compound dilutions were prepared from 10 mM DMSO stocks by dilution in cell growth medium, the final concentration of DMSO in the assay being 0.6%. […] The cells were then incubated with compounds at 37° C. for 2 h. The medium was removed by aspiration and cells were lysed by addition of 20 uL of ice-cold cell lysis buffer per well. The plates were kept on ice for 20 min and 50 uL of standard diluent was added to each well. 50 uL of cell lysate from each well was transferred to respective wells in an assay plate and 50 uL of detection antibody was added to all wells except H1-H6 which were no antibody control wells. Capture assay plates were incubated overnight in a cold room.
# Following incubation of the cell lysates and detection antibodies in the ELISA plate, the wells were washed 4 times with 120 uL of wash buffer (1×), then 100 uL of diluted HRP conjugated antibody (1:100 dil in diluent) was added to each well, and the plate was incubated at RT for 30 min. The wells were then washed for 4 times with 120 uL of wash buffer (1×) and 100 uL of chromogen was added to each well and incubated in the dark at RT for 5-10 min. 100 uL of stop solution was added to each well and the absorbance measured at 450 nm, 0.1 s.
# Comparison of the assay signals obtained in the presence of compound with those of positive and negative controls (cells with no compound and no detection antibody being added), allows degree of inhibition of phospho-FAK [Y397] to be determined over a range of compound concentrations. […] The assay as described above was modified to determine the effect of inclusion of 50% (v/v) mouse or human plasma. In this assay, the compound plate was prepared as 2× concentration in 100 uL of 100% mouse or human plasma, and 60 uL of this was added to 60 uL of culture medium and incubated at 37° C. incubator for 2 h. The rest of the assay was carried out as described above.
row,Structure (SMILES),IC50
1,CCOP1(=O)Cc2cc(OC)c(cc2Cl)Nc2ncc(C(F)(F)F)c(n2)Nc2ccc(nc2C(=O)NC)-c2cnn(c2)CC2(COC2)CO1 (racemic) [Example 57],400 to 4000 nM
2,CCOP1(=O)Cc2ccc(c(Cl)c2)Nc2ncc(C(F)(F)F)c(n2)Nc2ccc(nc2C(=O)NC)-c2cnn(c2)CC2(COC2)CO1 (racemic) [Example 58],< 400 nM
3,CCCP1(=O)Cc2ccc(c(OC)c2)Nc2ncc(C(F)(F)F)c(n2)Nc2ccc(cc2C(=O)NC)-c2cnn(c2)CCCO1 (racemic) [Example 66],< 400 nM
4,"CCOP1(=O)Cc2ccc(c(OC)c2)Nc2ncc(C(F)(F)F)c(n2)Nc2ccc(nc2C(=O)NC)-c2cnn(c2)CCCO1 (single isomer, unassigned) [Example 6B]",< 400 nM
5,"CCOP1(=O)Cc2ccc(c(OC)c2)Nc2ncc(C(F)(F)F)c(n2)Nc2ccc(nc2C(=O)NC)-c2cnn(c2)CC2(COC2)CO1 (single isomer, unassigned) [Example 44A]",< 400 nM
6,"CCNC(=O)c1nc2ccc1Nc1nc(ncc1C(F)(F)F)Nc1ccc(cc1OC)CP(=O)(OCC)OCC1(COC1)Cn1cc-2cn1 (single isomer, unassigned) [Example 45A]",400 to 4000 nM
7,"CCOP1(=O)Cc2ccc(c(OC)c2)Nc2ncc(C(F)(F)F)c(n2)Nc2ccc(nc2C(=O)NC)-c2cn(nc2OC)CCCO1 (single isomer, unassigned) [Example 48A]",> 4000 nM
8,"CCOP1(=O)Cc2ccc(c(OC)c2Cl)Nc2ncc(C(F)(F)F)c(n2)Nc2ccc(nc2C(=O)NC)-c2cnn(c2)CCCO1 (single isomer, unassigned) [Example 54A]",> 4000 nM
9,"CCOP1(=O)Cc2cc(OC)c(cc2Cl)Nc2ncc(C(F)(F)F)c(n2)Nc2ccc(nc2C(=O)NC)-c2cnn(c2)CCCO1 (single isomer, unassigned) [Example 56A]",> 4000 nM
10,"CCOP1(=O)Cc2cc(OC)c(cc2Cl)Nc2ncc(C(F)(F)F)c(n2)Nc2ccc(nc2C(=O)NC)-c2cnn(c2)CC2(COC2)CO1 (single isomer, unassigned) [Example 57A]",> 4000 nM
11,"CCOP1(=O)Cc2ccc(c(Cl)c2)Nc2ncc(C(F)(F)F)c(n2)Nc2ccc(nc2C(=O)NC)-c2cnn(c2)CC2(COC2)CO1 (single isomer, unassigned) [Example 58A]",400 to 4000 nM
12,"CCOP1(=O)Cc2ccc(c(OC)c2)Nc2ncc(C(F)(F)F)c(n2)Nc2ccc(nc2C(=O)NC)-c2cnn(c2)CC(F)(F)CO1 (single isomer, unassigned) [Example 59B]",400 to 4000 nM
13,"CCOP1(=O)Cc2ccc(c(OC)c2)Nc2ncc(C(F)(F)F)c(n2)Nc2ccc(nc2C(=O)NC)-c2cn(nc2C)CC2(COC2)CO1 (single isomer, unassigned) [Example 60A]",< 400 nM

# Same assay, conditions: 50% (v/v) mouse plasma, mean IC50, read-out: FAK Activity Mechanistic (U87MG) MP
row,Structure (SMILES),IC50
1,CCCP1(=O)Cc2ccc(c(OC)c2)Nc2ncc(C(F)(F)F)c(n2)Nc2ccc(cc2C(=O)NC)-c2cnn(c2)CCCO1 (racemic) [Example 66],< 400 nM
2,"CCOP1(=O)Cc2ccc(c(OC)c2)Nc2ncc(C(F)(F)F)c(n2)Nc2ccc(nc2C(=O)NC)-c2cn(nc2OC)CCCO1 (single isomer, unassigned) [Example 48A]",400 to 4000 nM
3,"CCOP1(=O)Cc2cc(OC)c(cc2Cl)Nc2ncc(C(F)(F)F)c(n2)Nc2ccc(nc2C(=O)NC)-c2cnn(c2)CCCO1 (single isomer, unassigned) [Example 56A]",400 to 4000 nM
4,"CCOP1(=O)Cc2cc(OC)c(cc2Cl)Nc2ncc(C(F)(F)F)c(n2)Nc2ccc(nc2C(=O)NC)-c2cnn(c2)CC2(COC2)CO1 (single isomer, unassigned) [Example 57A]",400 to 4000 nM

# Same assay, conditions: no plasma present, mean IC50, read-out: FAK Activity Mechanistic (U87MG) NP
row,Structure (SMILES),IC50
1,CCOP1(=O)Cc2cc(OC)c(cc2Cl)Nc2ncc(C(F)(F)F)c(n2)Nc2ccc(nc2C(=O)NC)-c2cnn(c2)CC2(COC2)CO1 (racemic) [Example 57],< 400 nM
2,CCOP1(=O)Cc2ccc(c(Cl)c2)Nc2ncc(C(F)(F)F)c(n2)Nc2ccc(nc2C(=O)NC)-c2cnn(c2)CC2(COC2)CO1 (racemic) [Example 58],< 400 nM
3,CCCP1(=O)Cc2ccc(c(OC)c2)Nc2ncc(C(F)(F)F)c(n2)Nc2ccc(cc2C(=O)NC)-c2cnn(c2)CCCO1 (racemic) [Example 66],< 400 nM
4,"CCOP1(=O)Cc2ccc(c(OC)c2)Nc2ncc(C(F)(F)F)c(n2)Nc2ccc(nc2C(=O)NC)-c2cnn(c2)CCCO1 (single isomer, unassigned) [Example 6B]",< 400 nM
5,"CCOP1(=O)Cc2ccc(c(OC)c2)Nc2ncc(C(F)(F)F)c(n2)Nc2ccc(nc2C(=O)NC)-c2cnn(c2)CC2(COC2)CO1 (single isomer, unassigned) [Example 44A]",< 400 nM
6,"CCNC(=O)c1nc2ccc1Nc1nc(ncc1C(F)(F)F)Nc1ccc(cc1OC)CP(=O)(OCC)OCC1(COC1)Cn1cc-2cn1 (single isomer, unassigned) [Example 45A]",< 400 nM
7,"CCOP1(=O)Cc2ccc(c(OC)c2)Nc2ncc(C(F)(F)F)c(n2)Nc2ccc(nc2C(=O)NC)-c2cn(nc2OC)CCCO1 (single isomer, unassigned) [Example 48A]",< 400 nM
8,"CCOP1(=O)Cc2ccc(c(OC)c2Cl)Nc2ncc(C(F)(F)F)c(n2)Nc2ccc(nc2C(=O)NC)-c2cnn(c2)CCCO1 (single isomer, unassigned) [Example 54A]",400 to 4000 nM
9,"CCOP1(=O)Cc2cc(OC)c(cc2Cl)Nc2ncc(C(F)(F)F)c(n2)Nc2ccc(nc2C(=O)NC)-c2cnn(c2)CCCO1 (single isomer, unassigned) [Example 56A]",< 400 nM
10,"CCOP1(=O)Cc2cc(OC)c(cc2Cl)Nc2ncc(C(F)(F)F)c(n2)Nc2ccc(nc2C(=O)NC)-c2cnn(c2)CC2(COC2)CO1 (single isomer, unassigned) [Example 57A]",< 400 nM
11,"CCOP1(=O)Cc2ccc(c(Cl)c2)Nc2ncc(C(F)(F)F)c(n2)Nc2ccc(nc2C(=O)NC)-c2cnn(c2)CC2(COC2)CO1 (single isomer, unassigned) [Example 58A]",< 400 nM
12,"CCOP1(=O)Cc2ccc(c(OC)c2)Nc2ncc(C(F)(F)F)c(n2)Nc2ccc(nc2C(=O)NC)-c2cnn(c2)CC(F)(F)CO1 (single isomer, unassigned) [Example 59B]",400 to 4000 nM
13,"CCOP1(=O)Cc2ccc(c(OC)c2)Nc2ncc(C(F)(F)F)c(n2)Nc2ccc(nc2C(=O)NC)-c2cn(nc2C)CC2(COC2)CO1 (single isomer, unassigned) [Example 60A]",< 400 nM
